Results published in patent US20150209327A1, “METHODS FOR THE TREATMENT OF OBESITY USING APREMILAST” (Celgene Corporation, priority 2014, published 2015).
“And” between values parts separate entries of the source, which are not always exact repeats. Identical values can stand only once.

Key:
[1] = system: Phosphodiesterase 4 enzyme; assay: Inhibition of PDE4 (enzyme purified from U937 human monocytic cells); type: biochemical; settings: 1 μM cAMP, 45 min at 30° C.
Description: Inhibition of PDE4: Phosphodiesterase 4 enzyme was purified from U937 human monocytic cells by gel filtration chromatography, and phosphodiesterase reactions were carried out as previously described. See Muller et al., Bioorg. Med. Chem. Lett., 1998, 8(19): 2669-2674. Briefly, reactions were carried out in 96-well deep-well plates in 50 mM Tris HCl pH 7.5, 5 mM MgCl2, 1 μM cyclic adenosine monophosphate (cAMP), plus 10 nM [3H]-cAMP for 45 min at 30° C. The reactions were terminated by boiling, treated with 1 mg/ml snake venom, and separated using AG-1X8 ion exchange resin (BioRad). Reactions consumed less than 15% of available substrate.

[2] = system: TNF-α production in PBMCs; assay: Inhibition of TNF-α production in PBMCs; type: cell-based; settings: PBMC
Text: The test methods were as described in WO 03/080049; Muller et al., J. Med. Chem., 1996, 39:3238; and Muller et al., Bioorg. Med. Chem. Lett., 1999, 9:1625-30.

[3] = Psoriasis (PSOR) Phase 3 Data Pool: weight change; type: in vivo, human; settings: 30 mg BID; for Weight % Change Category 0%, n (%) / Weight % Change Category <−20%, n (%) / Weight % Change Category >0% to ≦5%, n (%) / Weight % Change Category >5% to ≦10%, n (%) / Weight % Change Category >10% to ≦20%, n (%) / Weight % Change Category >20%, n (%) / Weight % Change Category ≧−5% to <0%, n (%) / Weight % Change Category ≧−10% to <−5%, n (%) / Weight % Change Category ≧−20% to <−10%, n (%): Subjects as Treated; for observed weight loss of greater than 10%, subjects n (%): subjects as treated
Text: Apremilast has shown benefit of weight loss in both Phase 2 and Phase 3 Psoriatic Arthritis (PSA) and Psoriasis (PSOR) trials.

PDE7 = PDE7 (Homo sapiens, UniProt Q13946); assay: PDE7 enzyme assay; type: biochemical
PDE7, sequence (Q13946 whole entry): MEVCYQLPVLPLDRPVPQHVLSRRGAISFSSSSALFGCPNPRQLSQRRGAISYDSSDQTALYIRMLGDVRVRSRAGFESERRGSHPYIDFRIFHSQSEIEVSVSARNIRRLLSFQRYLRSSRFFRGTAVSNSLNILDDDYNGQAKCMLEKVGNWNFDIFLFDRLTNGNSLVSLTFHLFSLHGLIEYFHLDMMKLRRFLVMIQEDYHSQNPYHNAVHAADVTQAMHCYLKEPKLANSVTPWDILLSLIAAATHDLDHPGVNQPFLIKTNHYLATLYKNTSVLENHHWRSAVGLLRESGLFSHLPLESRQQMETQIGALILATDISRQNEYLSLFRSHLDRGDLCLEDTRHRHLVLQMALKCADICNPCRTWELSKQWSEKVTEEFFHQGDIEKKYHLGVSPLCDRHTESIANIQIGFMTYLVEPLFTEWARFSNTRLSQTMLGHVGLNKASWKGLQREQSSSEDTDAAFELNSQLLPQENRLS
Description: PDE1, 2, 3 and 5 enzyme assays were prepared as described by Hidaka and Asano. Biochem. Biophys. Acta., 1976, 429:485; see also Nicholsen et al., Trends Pharmaco. Sci., 1991, 12:19. The PDE6 enzyme assay was prepared according to Baehr et al., J. Biol. Chem., 1979, 254:11669 and Gillespie et al., Mol. Pharm., 1989, 36: 773. The PDE7 enzyme assay was prepared according to Bloom and Beavo. Proc. Natl. Acad. Sci. USA, 1996, 93:14188-92.

[4] = Apremilast Data Pool: weight change; type: in vivo, human; settings: 20 mg BID
Text: Similar results of weight loss were reported for the Apremilast Data Pool. A weight decrease was reported during the Placebo-controlled Period (24 weeks) in 3 (0.2%) subjects who received placebo and 26 (0.9%) subjects who received apremilast, including 8 (0.8%) subject in the APR 20 BID group, and 18 (1.1%) subjects in the APR 30 BID group.
The end-of-period value is the last postbaseline value (only through the Placebo-controlled Period for placebo-treated subjects) including data up to 28 days after the last dose of investigational product but excluding the observational follow-up visit.
The end-of-period value is the last postbaseline value (while subjects were receiving apremilast), including data up to 28 days after the last dose of apremilast but excluding the observational follow-up visit.

[5] = Apremilast-exposure Period, m = 1133
[6] = End of Period (APR, apremilast exposure), Subjects as Initially Treated at Week 0
[7] = End of Period (PBC), Subjects as Initially Treated at Week 0
[8] = End of Period (apremilast exposure), Apremilast Subjects as Treated
[9] = Week 52, Apremilast Subjects as Treated
[10] = Week 78, Apremilast Subjects as Treated
[11] = Apremilast-exposure Period, Apremilast Subjects as Treated, m = 1373

CCOc1cc([C@@H](CS(C)(=O)=O)N2C(=O)c3cccc(NC(C)=O)c3C2=O)ccc1OC [Apremilast, (+)-2-[1-(3-ethoxy-4-methoxyphenyl)-2-methylsulfonylethyl]-4-acetylaminoisoindoline-1,3-dione]
IC50 [1]: 73.5 nM | IC50 [2]: 77 nM | weight decrease reported, subjects n (%) [3]: 18 (1.5%) n (%) | Weight % Change Category 0%, n (%) [3, 5]: 72 (6.4) n (%) | Weight % Change Category <−20%, n (%) [3, 5]: 9 (0.8) n (%) | Weight % Change Category >0% to ≦5%, n (%) [3, 5]: 283 (25.0) n (%) | Weight % Change Category >5% to ≦10%, n (%) [3, 5]: 61 (5.4) n (%) | Weight % Change Category >10% to ≦20%, n (%) [3, 5]: 19 (1.7) n (%) | Weight % Change Category >20%, n (%) [3, 5]: 1 (0.1) n (%) | Weight % Change Category ≧−5% to <0%, n (%) [3, 5]: 470 (41.5) n (%) | Weight % Change Category ≧−10% to <−5%, n (%) [3, 5]: 162 (14.3) n (%) | Weight % Change Category ≧−20% to <−10%, n (%) [3, 5]: 56 (4.9) n (%) | observed weight loss of greater than 10%, subjects n (%) ([3]; Apremilast-exposure Period): 65(5.7%) n (%) | Change From Baseline (kg) Median (Min, Max) [3, 6]: −1.00 (−39.4, 22.3) kg | Weight, kg End of Period Mean ± SD [3, 6]: 91.05 ± 21.694 kg | Change From Baseline (kg) Mean ± SD ([3]; End of Period (APR, apremilast exposure), Subjects as Initially Treated at Week 0, listed as APR): -1.67 kg and -1.67 ± 5.437 kg | Change From Baseline (kg) Median (Min, Max) [3, 7]: −1.00 (−34.9, 28.0) kg | Weight, kg End of Period Mean ± SD [3, 7]: 91.35 ± 21.673 kg | Change From Baseline (kg) Mean ± SD ([3]; End of Period (PBC), Subjects as Initially Treated at Week 0, listed as APR): -1.45 kg and -1.45 ± 3.891 kg | Change From Baseline (kg) Mean ± SD [3, 8]: -1.76 ± 5.344 kg | Change From Baseline (kg) Median (Min, Max) [3, 8]: −1.10 (−39.4, 22.3) kg | Weight, kg Time Point Mean ± SD [3, 8]: 90.72 ± 21.669 kg | Change From Baseline (kg) Median (Min, Max) [3, 9]: −1.40 (−39.0, 15.6) kg | Weight, kg Time Point Mean ± SD [3, 9]: 90.98 ± 22.291 kg | Change From Baseline (kg) Mean ± SD ([3]; Week 52, Apremilast Subjects as Treated, listed as APR): -1.99 kg and -1.99 ± 5.640 kg | Change From Baseline (kg) Median (Min, Max) [3, 10]: −2.30 (−28.0, 14.9) kg | Weight, kg Time Point Mean ± SD [3, 10]: 89.72 ± 22.231 kg | Change From Baseline (kg) Mean ± SD ([3]; Week 78, Apremilast Subjects as Treated, listed as APR): -2.72 kg and -2.72 ± 5.792 kg | percentage of subjects with weight change of >−10% to <−5% ([3]; Weeks 0-16): 11.7% | Weight % Change Category 0%, n (%) ([3]; Weeks 0-16, m = 1127): 108 (9.6) n (%) | Weight % Change Category <−20%, n (%) ([3]; Weeks 0-16, m = 1127): 2 (0.2) n (%) | Weight % Change Category >0% to ≦5%, n (%) ([3]; Weeks 0-16, m = 1127): 277 (24.6) n (%) | Weight % Change Category >5% to ≦10%, n (%) ([3]; Weeks 0-16, m = 1127): 24 (2.1) n (%) | Weight % Change Category >10% to ≦20%, n (%) ([3]; Weeks 0-16, m = 1127): 6 (0.5) n (%) | Weight % Change Category >20%, n (%) ([3]; Weeks 0-16, m = 1127): 1 (0.1) n (%) | Weight % Change Category ≧−5% to <0%, n (%) ([3]; Weeks 0-16, m = 1127): 557 (49.4) n (%) | Weight % Change Category ≧−10% to <−5%, n (%) ([3]; Weeks 0-16, m = 1127): 132 (11.7) n (%) | Weight % Change Category ≧−20% to <−10%, n (%) ([3]; Weeks 0-16, m = 1127): 20 (1.8) n (%) | observed weight loss of greater than 10%, subjects n (%) ([3]; Weeks 0 to 16): 22 (2.0%) n (%) | body weight of the majority of subjects ([3]; regardless of duration of exposure): maintained their body weight within 0% and 5% of baseline | IC50 (PDE7): 20500 nM | observed weight loss of greater than 10%, % subjects ([4]; Apremilast-exposure Period): 4.0% | weight decrease reported, subjects n (%) ([4]; Apremilast-exposure Period): 17 (1.2%) n (%) | Weight % Change Category 0%, n (%) [4, 11]: 125 (9.1) n (%) | Weight % Change Category <−20%, n (%) [4, 11]: 2 (0.1) n (%) | Weight % Change Category >0% to ≦5%, n (%) [4, 11]: 410 (29.9) n (%) | Weight % Change Category >5% to ≦10%, n (%) [4, 11]: 56 (4.1) n (%) | Weight % Change Category >10% to ≦20%, n (%) [4, 11]: 18 (1.3) n (%) | Weight % Change Category >20%, n (%) [4, 11]: 0 n (%) | Weight % Change Category ≧−5% to <0%, n (%) [4, 11]: 565 (41.2) n (%) | Weight % Change Category ≧−10% to <−5%, n (%) [4, 11]: 144 (10.5) n (%) | Weight % Change Category ≧−20% to <−10%, n (%) [4, 11]: 53 (3.9) n (%) | observed weight loss of greater than 10%, subjects n (%) ([4]; Placebo-controlled Period): 17 (1.9%) n (%) | percentage of subjects with weight change of >−10% to <−5% ([4]; Placebo-controlled Period): 9.3% | weight decrease reported, subjects n (%) ([4]; Placebo-controlled Period (24 weeks)): 8 (0.8%) n (%)
